Reference: US5466682A, “Acylamino-alkyliden-hydroxy-bisphosphonic acids esters and salts thereof, wherein the acyl group is derived from an acid having antiinflammatory activity” (Istituto Gentili S.p.A., priority 1991, dated 1995)

Key:
Carrageenin Oedema = Carrageenin Oedema in Rat (% protection of paw oedema); assay type: in vivo, rat (S.D. male); conditions: subcutaneous; for % Protection 2nd hour: 2nd hour after carrageenin; for % Protection 4th hour: 4th hour after carrageenin; for % Protection 6th hour: 6th hour after carrageenin
Description: Carrageenin Oedema in Rat
Carrageenin+Ibuprofen (11 and 5.5 mg/kg)
Carrageenin+compound of example 8 (Br-Ax) (25.0 and 12.5 mg/kg)
Carrageenin+compound of example 7 (Br-Ab) (25.0 and 12.5 mg/kg)
Note: Ibuprofen doses are equimolar to the corresponding Br-Ab and Br-Ax doses.
S.D. male rats weighing 160-180 g
1) Control - (Carrageenin only)
Each group consisted of 5 males, trying to obtain the most homogeneous total weight for each group. The animals were inoculated subcutaneously with the test solutions homogenized in 5% gum Arabic which had been sterilized by filtration with "Acrodisc" Gelman with […] pores.
After 1 hour the animals were […] 0.1 ml of 1% carrageenin in sterile saline. Carrageenin was kept under stirring by means of a magnetic stirred, to make it as homogeneous as possible.
At the same time, the basal paw volumes were determined by means of a plethysmograph, so as to make possible to repeat the measurements in the most reliable way in the subsequent hours.
2 Hours after carrageenin inoculation, the measure of paw volumes was determined (2nd hour). Subsequently, said measurement was effected at the 4th and 6th hours from inoculation. After that, the % protection was calculated by means of the following formula: [formula]

[1] = test system: bone calcium loss induced by retinoid; assay: Bone calcium loss induced by retinoid in thyroparathyroidectomized rat (plasma Ca); assay type: in vivo, rat (male); conditions: thyroparathyroidectomized rats, retinoid s.c. 3 days, 24 hours after last administration; for Plasmatic Ca increase after retinoid adm.: controls 1.11 ± 0.03; for % inhibition (of plasmatic Ca increase after retinoid): versus controls
Description: Male rats weighing about […] are thyroparathyroidectomyzed under Nembutal anaesthesia. The animals are treated with thyroxine on alternate days during all the test. 7 Days after surgery, blood is withdrawn by means of intracardiac puncture and Ca is determined on plasma. […] 24 Hours after the last administration, animals are killed and blood is recovered to determine Ca again.
BONE CALCIUM LOSS INDUCED BY RETINOID IN RAT

SMILES | % Protection 2nd hour (Carrageenin Oedema; 12.5 mg/kg) [%] | % Protection 4th hour (Carrageenin Oedema; 12.5 mg/kg) [%] | % Protection 6th hour (Carrageenin Oedema; 12.5 mg/kg) [%] | % Protection 2nd hour (Carrageenin Oedema; 25.0 mg/kg) [%] | % Protection 4th hour (Carrageenin Oedema; 25.0 mg/kg) [%] | % Protection 6th hour (Carrageenin Oedema; 25.0 mg/kg) [%] | Plasmatic Ca increase after retinoid adm. [1] [mmol/lt] | % inhibition (of plasmatic Ca increase after retinoid) [1] [%] | % Protection 2nd hour (Carrageenin Oedema; 5.5 mg/kg) [%] | % Protection 4th hour (Carrageenin Oedema; 5.5 mg/kg) [%] | % Protection 6th hour (Carrageenin Oedema; 5.5 mg/kg) [%] | % Protection 2nd hour (Carrageenin Oedema; 11.0 mg/kg) [%] | % Protection 4th hour (Carrageenin Oedema; 11.0 mg/kg) [%] | % Protection 6th hour (Carrageenin Oedema; 11.0 mg/kg) [%]
CC(C)Cc1ccc(C(C)C(=O)NCCCC(O)(P(=O)(O)O)P(=O)(O)O)cc1 (stereo not shown) [Br--Ab, [4-[2-(4-Isobutylphenyl)-propionyl]-amino-1-hydroxybutylidene]-diphosphonicacid] | 31 | 28 | 30 | 68 | 57 | 38 | 0.62 ± 0.03 | 44.1 |  |  |  |  |  | 
CC(C)Cc1ccc(C(C)C(=O)NCCCCCC(O)(P(=O)(O)O)P(=O)(O)O)cc1 (stereo not shown) [Br--Ax, [6-[2-(4-Isobutylphenyl)-propionyl]-amino-1-hydroxyhexylidene]-diphosphonicacid] | 41 | 36 | 48 | 42 | 21 | 56 | 0.75 ± 0.17 | 32.4 |  |  |  |  |  | 
CC(C)Cc1ccc(C(C)C(=O)O)cc1 (stereo not shown) [Ibuprofen, ibuprofen, reference compound] |  |  |  |  |  |  |  |  | 18 | 3 | 4 | 21 | 25 | 28
